Read-outs that look alike come from different tables or passages of the source.
Key:
CK1ε = CK1ε (Homo sapiens, UniProt P49674); assay: CK1ε kinase assay (Caliper LabChip electrophoretic separation of fluoresceinated peptide substrate and product); assay type: biochemical; details: 200 pM CK1ε, 50 μM ATP, 1.5 μM peptide, 22 hours at room temperature
Method: (§1) CK1ε and CK1δ Kinase Assays
(§2) The kinase assay was performed in V-bottom 384-well plates. […] The reaction was incubated at room temperature for 22 hours and terminated by adding 45 μl of 35 mM EDTA to each sample. The reaction mixture was analyzed on the Caliper LABCHIP®3000 (Caliper, Hopkinton, Mass.) by electrophoretic separation of the unphosphorylated substrate and phosphorylated product. […] Compounds were dissolved at 10 mM in dimethylsulfoxide (DMSO) and evaluated at eleven concentrations. IC50 values were derived by non-linear regression analysis.

CK1δ = CK1δ (Homo sapiens, UniProt P48730); assay: CK1δ kinase assay (Caliper LabChip electrophoretic separation of fluoresceinated peptide substrate and product); assay type: biochemical; details: 200 pM CK1δ, 50 μM ATP, 1.5 μM peptide, 22 hours at room temperature
CK1δ, sequence (P48730 whole entry): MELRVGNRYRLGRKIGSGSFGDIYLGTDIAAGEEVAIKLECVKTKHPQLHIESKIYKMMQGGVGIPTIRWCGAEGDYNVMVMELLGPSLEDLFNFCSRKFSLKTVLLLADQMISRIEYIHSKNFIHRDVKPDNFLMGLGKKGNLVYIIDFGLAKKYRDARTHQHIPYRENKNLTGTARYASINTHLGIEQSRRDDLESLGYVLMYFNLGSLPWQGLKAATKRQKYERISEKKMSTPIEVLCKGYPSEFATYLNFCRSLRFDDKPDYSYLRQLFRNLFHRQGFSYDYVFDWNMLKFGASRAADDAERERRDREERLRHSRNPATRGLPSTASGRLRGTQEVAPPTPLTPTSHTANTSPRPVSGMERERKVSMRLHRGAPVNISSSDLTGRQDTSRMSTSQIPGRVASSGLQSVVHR
Method: as §1, §2

CK1ε, sequence (P49674 whole entry): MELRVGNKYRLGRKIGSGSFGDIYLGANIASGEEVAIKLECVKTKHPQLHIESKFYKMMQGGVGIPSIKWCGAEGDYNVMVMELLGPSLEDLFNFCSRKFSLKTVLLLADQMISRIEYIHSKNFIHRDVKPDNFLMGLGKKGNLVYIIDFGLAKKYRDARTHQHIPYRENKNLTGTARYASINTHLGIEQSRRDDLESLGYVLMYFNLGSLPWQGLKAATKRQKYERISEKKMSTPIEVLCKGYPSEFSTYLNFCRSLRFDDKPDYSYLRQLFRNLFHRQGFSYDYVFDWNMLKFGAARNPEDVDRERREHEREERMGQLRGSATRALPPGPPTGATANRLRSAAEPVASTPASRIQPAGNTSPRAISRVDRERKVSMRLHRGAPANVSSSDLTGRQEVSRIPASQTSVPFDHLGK

| IC50 (CK1ε; read-out: CK1ε IC50 range) [nM] | IC50 (CK1δ; read-out: CK1δ IC50 range) [nM] | IC50 (CK1ε; read-out: CK1ε) [nM] | IC50 (CK1δ; read-out: CK1δ) [nM] | Compound |
| --- | --- | --- | --- | --- |
| 0.01 to 10 | 0.01 to 10 |  |  | 2-(3-Chloro-4-fluorophenyl)-N^5-(3,3-difluorocyclopentyl)-6,7-dihydropyrazolo[1,5-a]pyrazine-3,5(4H)-dicarboxamide [Compound 332] |
| 0.01 to 10 | 0.01 to 10 |  |  | NC(=O)c1c(-c2cccc(Cl)c2)nn2c1CN(C(=O)NC1CC(COC(F)F)C1)CC2 (single isomer, unassigned) [Compound 244, 2-(3-Chlorophenyl)-N^5-(3-((difluoromethoxy)methyl)cyclobutyl)-6,7-dihydropyrazolo[1,5-a]pyrazine-3,5(4H)-dicarboxamide] |
| 0.01 to 10 | 0.01 to 10 |  |  | NC(=O)c1c(-c2cccc(Cl)c2)nn2c1CN(C(=O)NC1CC(COC(F)F)C1)CC2 (single isomer, unassigned) [Compound 245, 2-(3-Chlorophenyl)-N^5-(3-((difluoromethoxy)methyl)cyclobutyl)-6,7-dihydropyrazolo[1,5-a]pyrazine-3,5(4H)-dicarboxamide] |
| 0.01 to 10 | 0.01 to 10 |  |  | CC1CC(NC(=O)N2CCn3nc(-c4ccc(F)c(Cl)c4)c(C(N)=O)c3C2)C1 (single isomer, unassigned) [Compound 246, 2-(3-Chloro-4-fluorophenyl)-N^5-(3-methylcyclobutyl)-6,7-dihydropyrazolo[1,5-a]pyrazine-3,5(4H)-dicarboxamide] |
| 0.01 to 10 | 0.01 to 10 |  |  | CC1CC(NC(=O)N2CCn3nc(-c4ccc(F)c(Cl)c4)c(C(N)=O)c3C2)C1 (single isomer, unassigned) [Compound 247, 2-(3-Chloro-4-fluorophenyl)-N^5-(3-methylcyclobutyl)-6,7-dihydropyrazolo[1,5-a]pyrazine-3,5(4H)-dicarboxamide] |
| 0.01 to 10 | 0.01 to 10 | 0.4 | 1.5 | CC1CC(NC(=O)N2CCn3nc(-c4ccc(Cl)c(Cl)c4)c(C(N)=O)c3C2)C1 (single isomer, unassigned) [Compound 248, 2-(3,4-Dichlorophenyl)-N^5-(3-methylcyclobutyl)-6,7-dihydropyrazolo[1,5-a]pyrazine-3,5(4H)-dicarboxamide] |
| 0.01 to 10 | 0.01 to 10 |  |  | CC1CC(NC(=O)N2CCn3nc(-c4ccc(Cl)c(Cl)c4)c(C(N)=O)c3C2)C1 (single isomer, unassigned) [Compound 249, 2-(3,4-Dichlorophenyl)-N^5-(3-methylcyclobutyl)-6,7-dihydropyrazolo[1,5-a]pyrazine-3,5(4H)-dicarboxamide] |
| 0.01 to 10 | 0.01 to 10 |  |  | CC1CC(NC(=O)N2CCn3nc(-c4cccc(Cl)c4)c(C(N)=O)c3C2)C1 (single isomer, unassigned) [Compound 250, 2-(3-Chlorophenyl)-N^5-(3-methylcyclobutyl)-6,7-dihydropyrazolo[1,5-a]pyrazine-3,5(4H)-dicarboxamide] |
| 0.01 to 10 | 0.01 to 10 |  |  | CC1CC(NC(=O)N2CCn3nc(-c4cccc(Cl)c4)c(C(N)=O)c3C2)C1 (single isomer, unassigned) [Compound 251, 2-(3-Chlorophenyl)-N^5-(3-methylcyclobutyl)-6,7-dihydropyrazolo[1,5-a]pyrazine-3,5(4H)-dicarboxamide] |
| 0.01 to 10 | 0.01 to 10 | 0.7 | 0.5 | CC1(NC(=O)N2CCn3nc(-c4ccc(F)c(Cl)c4)c(C(N)=O)c3C2)CC(C(F)F)C1 (single isomer, unassigned) [Compound 258, 2-(3-Chloro-4-fluorophenyl)-N^5-(3-(difluoromethyl)-1-methylcyclobutyl)-6,7-dihydropyrazolo[1,5-a]pyrazine-3,5(4H)-dicarboxamide] |
| 0.01 to 10 | 0.01 to 10 |  |  | CC1(NC(=O)N2CCn3nc(-c4ccc(F)c(Cl)c4)c(C(N)=O)c3C2)CC(C(F)F)C1 (single isomer, unassigned) [Compound 259, 2-(3-Chloro-4-fluorophenyl)-N^5-(3-(difluoromethyl)-1-methylcyclobutyl)-6,7-dihydropyrazolo[1,5-a]pyrazine-3,5(4H)-dicarboxamide] |
| 0.01 to 10 | 0.01 to 10 |  |  | NC(=O)c1c(-c2ccc(F)c(Cl)c2)nn2c1CN(C(=O)NC1CC3(C1)CC3(F)F)CC2 (single isomer, unassigned) [Compound 320, 2-(3-Chloro-4-fluorophenyl)-N^5-(1,1-difluorospiro[2.3]hexan-5-yl)-6,7-dihydropyrazolo[1,5-a]pyrazine-3,5(4H)-dicarboxamide] |
| 10 to 100 |  |  |  | NC(=O)c1c(-c2cccc(F)c2)nn2c1CN(C(=O)Nc1ccc(F)c(F)c1)CC2 [Compound 29, N^5-(3,4-Difluorophenyl)-2-(3-fluorophenyl)-6,7-dihydropyrazolo[1,5-a]pyrazine-3,5(4H)-dicarboxamide] |
| 10 to 100 |  |  |  | NC(=O)c1c(-c2cccc(F)c2)nn2c1CN(C(=O)Nc1cc(Cl)ccc1F)CC2 [Compound 33, N^5-(5-Chloro-2-fluorophenyl)-2-(3-fluorophenyl)-6,7-dihydropyrazolo[1,5-a]pyrazine-3,5(4H)-dicarboxamide] |
| 10 to 100 |  |  |  | NC(=O)c1c(-c2cccc(F)c2)nn2c1CN(C(=O)NCc1ccc(Cl)c(Cl)c1)CC2 [Compound 46, N^5-(3,4-Dichlorobenzyl)-2-(3-fluorophenyl)-6,7-dihydropyrazolo[1,5-a]pyrazine-3,5(4H)-dicarboxamide] |
| 10 to 100 |  |  |  | COc1ccc(NC(=O)N2CCn3nc(-c4cccc(F)c4)c(C(N)=O)c3C2)cc1OC [Compound 66, N^5-(3,4-Dimethoxyphenyl)-2-(3-fluorophenyl)-6,7-dihydropyrazolo[1,5-a]pyrazine-3,5(4H)-dicarboxamide] |
| 10 to 100 |  |  |  | NC(=O)c1c(-c2cccc(F)c2)nn2c1CN(C(=O)Nc1cccnc1)CC2 [Compound 68, 2-(3-Fluorophenyl)-N^5-(pyridin-3-yl)-6,7-dihydropyrazolo[1,5-a]pyrazine-3,5(4H)-dicarboxamide] |
| 10 to 100 |  |  |  | NC(=O)c1c(-c2cccc(F)c2)nn2c1CN(C(=O)Nc1cncnc1)CC2 [Compound 84, 2-(3-Fluorophenyl)-N^5-(pyrimidin-5-yl)-6,7-dihydropyrazolo[1,5-a]pyrazine-3,5(4H)-dicarboxamide] |
| 10 to 100 |  |  |  | Cc1ccc(NC(=O)N2CCn3nc(-c4cccc(F)c4)c(C(N)=O)c3C2)cn1 [Compound 86, 2-(3-Fluorophenyl)-N^5-(6-methylpyridin-3-yl)-6,7-dihydropyrazolo[1,5-a]pyrazine-3,5(4H)-dicarboxamide] |
| 10 to 100 |  |  |  | NC(=O)c1c(-c2cccc(F)c2)nn2c1CN(C(=O)Nc1ccc(F)nc1)CC2 [Compound 87, 2-(3-Fluorophenyl)-N^5-(6-fluoropyridin-3-yl)-6,7-dihydropyrazolo[1,5-a]pyrazine-3,5(4H)-dicarboxamide] |
| 10 to 100 |  |  |  | NC(=O)c1c(-c2cccc(F)c2)nn2c1CN(C(=O)Nc1ccc(OC(F)F)cc1)CC2 [Compound 89, N^5-(4-(Difluoromethoxy)phenyl)-2-(3-fluorophenyl)-6,7-dihydropyrazolo[1,5-a]pyrazine-3,5(4H)-dicarboxamide] |
| 10 to 100 |  |  |  | NC(=O)c1c(-c2cccc(F)c2)nn2c1CN(C(=O)Nc1ccnc(Cl)c1)CC2 [Compound 90, N^5-(2-Chloropyridin-4-yl)-2-(3-fluorophenyl)-6,7-dihydropyrazolo[1,5-a]pyrazine-3,5(4H)-dicarboxamide] |
| 10 to 100 |  |  |  | CC(=O)N1CCC(NC(=O)N2CCn3nc(-c4cccc(F)c4)c(C(N)=O)c3C2)CC1 [Compound 97] |
| 10 to 100 |  |  |  | NC(=O)c1c(-c2cccc(F)c2)nn2c1CN(C(=O)NC1CCN(S(=O)(=O)C3CC3)CC1)CC2 [Compound 102, N^5-(1-(Cyclopropylsulfonyl)piperidin-4-yl)-2-(3-fluorophenyl)-6,7-dihydropyrazolo[1,5-a]pyrazine-3,5(4H)-dicarboxamide] |
| 10 to 100 |  |  |  | CC(C)(C)NC(=O)N1CCn2nc(-c3cc(F)cc(F)c3)c(C(N)=O)c2C1 [Compound 105, N^5-(tert-Butyl)-2-(3,5-difluorophenyl)-6,7-dihydropyrazolo[1,5-a] pyrazine-3,5(4H)-dicarboxamide] |
| 10 to 100 |  |  |  | COc1cc(F)cc(-c2nn3c(c2C(N)=O)CN(C(=O)NC(C)(C)C)CC3)c1 [Compound 137, N^5-(tert-Butyl)-2-(3-fluoro-5-methoxyphenyl)-6,7-dihydropyrazolo[1,5-a] pyrazine-3,5(4H)-dicarboxamide] |
| 10 to 100 |  |  |  | CSc1cccc(-c2nn3c(c2C(N)=O)CN(C(=O)NC(C)(C)C)CC3)c1 [Compound 150, N^5-(tert-Butyl)-2-(3-(methylthio)phenyl)-6,7-dihydropyrazolo[1,5-a] pyrazine-3,5(4H)-dicarboxamide] |
| 100 to 2000 |  |  |  | CC(C)(C)NC(=O)N1Cc2c(C(N)=O)c(-c3ccc(F)c(Cl)c3)nn2CC12CC2 [Compound 350, N^5′-(tert-Butyl)-2′-(3-chloro-4-fluorophenyl)-4′H-spiro[cyclopropane-1,6′-pyrazolo[1,5-a]pyrazine]-3′,5′(7′H)-dicarboxamide] |
| 0.01 to 10 |  |  |  | N#Cc1ccc(NC(=O)N2Cc3c(C(N)=O)c(-c4cccc(Cl)c4)nn3C(CF)C2)cc1 (stereo not shown) [Compound A4, 2-(3-Chlorophenyl)-N^5-(4-cyanophenyl)-7-(fluoromethyl)-6,7-dihydropyrazolo[1,5-a]pyrazine-3,5(4H)-dicarboxamide] |
